Patent publication EP4168403B1 (priority 2020, dated 2021)
Several values for one entry are separate records, joined by “and”; a condition that tells them apart may be missing. Equal values may be shown once. Read-outs that look alike come from different tables or passages of the source.

Experiments:
[1] = system: voltage-gated Ca^2+ channels (VGCC); assay: Calcium channel antagonist assay (K+-evoked cytosolic Ca2+, Fluo-4); format: cell-based
Experimental: The cytosolic Ca^2+ has been measured in SH-SY5Y cells. SH-SY5Y cells were maintained similarly to what was previously described^30. Free cytosolic Ca^2+ was measured using the fluorescent Ca^2+ indicator Fluo-4/AM (Fluo-4 acetomethoxyester). SH-SY5Y cells were seeded onto 96-well black plates at a density of 10^5 cells per well, achieving confluence after 48 h. Cells were washed with Krebs-Hepes solution (KH, in mM: 144 NaCl, 5.9 KCl, 1.2 MgCl2, 2 CaCl2, 11 D-glucose, 10 HEPES, pH 7.4). Cells were loaded with 10 µM Fluo-4/AM and 0.2% pluronic acid in KH and incubated for 45 min at 37 °C in the dark. Then, cells were washed twice with KH to remove the excess of probe. Tested compounds were incubated 10 min before K+ 70 mM was applied to evoke the increment of cytosolic Ca^2+. To normalize Fluo-4 signals, Triton X-100 (5%) and 1 M MnCl2 were applied to register both maximal and minimal fluorescence, respectively. The experiments were analyzed at excitation and emission wavelengths of 485 and 520 nm, respectively, and fluorescence was measured in a fluorescence microplate reader (FLUOstar Optima, BMG, Germany). Data were calculated as a percentage of Fmax - Fmin.
The blocking effect of the depolarization-induced Ca^2+ uptake was investigated in SH-SY5Y neuroblastoma cells stimulated with an extracellular concentration of K+ 70 mM, which induces the cell Ca^2+ levels elevation by opening voltage-gated Ca^2+ channels (VGCC), monitored with the Ca^2+-sensitive fluorescent dye Fluo-4. Nifedipine was used as positive standard.

[2] = target: T1, human recombinant butyrylcholinesterase (hBuChE; EC 3.1.1.8) (Homo sapiens, UniProt P06276); assay: Cholinesterase inhibition in vitro assay (modified Ellman's method), BuChE; format: biochemical; settings: pH 7.4, 37 °C, mean ± SEM, read-out: BChE (IC50 µM)
T1 construct: purchased Sigma-Aldrich (Prague, Czech Republic)
T1 sequence (P06276 29-602): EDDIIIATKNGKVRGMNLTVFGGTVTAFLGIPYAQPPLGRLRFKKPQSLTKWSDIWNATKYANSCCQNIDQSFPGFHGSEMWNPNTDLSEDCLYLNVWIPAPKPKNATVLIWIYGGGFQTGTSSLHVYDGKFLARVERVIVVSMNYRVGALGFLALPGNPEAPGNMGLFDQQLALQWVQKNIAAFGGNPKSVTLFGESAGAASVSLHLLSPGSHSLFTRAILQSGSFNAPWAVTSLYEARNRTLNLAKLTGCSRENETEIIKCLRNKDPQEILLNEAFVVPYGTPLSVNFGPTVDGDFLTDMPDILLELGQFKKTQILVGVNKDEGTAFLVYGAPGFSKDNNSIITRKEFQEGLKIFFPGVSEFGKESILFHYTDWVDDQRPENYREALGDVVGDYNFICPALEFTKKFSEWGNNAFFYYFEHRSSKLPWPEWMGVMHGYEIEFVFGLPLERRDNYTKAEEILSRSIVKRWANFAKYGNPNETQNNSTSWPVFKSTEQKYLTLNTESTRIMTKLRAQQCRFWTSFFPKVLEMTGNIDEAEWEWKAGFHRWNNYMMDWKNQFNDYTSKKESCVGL
Experimental: The AChE and BuChE inhibitory activity of the tested compounds was determined using a modified Ellman's method^31, 32.Human red-blood cell acetylcholinesterase (hAChE; EC 3.1.1.7), and human recombinant butyrylcholinesterase (hBuChE; EC 3.1.1.8), 5,5'-dithiobis(2-nitrobenzoic acid) (Ellman's reagent, DTNB), phosphate buffer (PB, pH 7.4), acetylthiocholine (ATC), and butyrylthiocholine (BTC), were purchased from Sigma-Aldrich (Prague, Czech Republic). Nunc polystyrene 96-well microplates with flat-bottom shape (ThermoFisher Scientific, USA) were used for the measurement and all the assay were carried out in 0.1 M KH2PO4/K2HPO4 buffer, pH 7.4. Enzyme solution was prepared at activity 2.0 units/mL in 2 mL aliquots. The assay mixture (100 µL) consisted of 40 µL of 0.1 M phosphate buffer (pH 7.4), 20 µL of 0.01 M DTNB, 10 µL of enzyme, and 20 µL of 0.01 M substrate (ATC iodide solution). Tested compounds were dissolved first in methanol (BIGI 23 in DMSO) and then further diluted by assay buffer to the final concentration. […]. […] Enzyme with the inhibitor was preincubated for 5 min in the assay mixture and then the reaction was started by addition of 20 µL of substrate (ATC for AChE, BTC for BuChE). The enzyme activity was determined by measuring the increase in absorbance at 412 nm at 37 °C at 2 min intervals using a Multi-mode microplate reader Synergy 2 (Vermont, USA). Each concentration was assayed in triplicate. The obtained data were used to compute the percentage inhibition (I; Equation 1): I = 1−(ΔAi)/(ΔA0) [%] [formula] ΔAi indicates the absorbance change provided by cholinesterase exposed to AChE inhibitors and ΔA0 indicates absorbance change caused by intact cholinesterase (phosphate buffer was used instead of AChE inhibitor solution). […] Calculations were performed using software Microsoft Excel (Redmont, WA, USA) and GraphPad Prism version 5.02 for Windows, GraphPad Software, San Diego, CA, USA.

[3] = Oxygen Radical Absorbance Capacity (ORAC-FL) assay; settings: Trolox equivalents (µmol of Trolox equivalent/µmol of compound)
Experimental: The radical scavenging capacity of the TFAHs was determined by the ORAC-FL method using fluorescein as a fluorescent probe^33,34. (±)-6-Hydroxy-2,5,7,8-tetramethylchromane-2-carboxylic acid (Trolox), fluorescein (FL) and 2,2'-azobis(amidinopropane) dihydrochloride (AAPH) were purchased from Sigma-Aldrich. A Varioskan Flash plate reader with built-in injectors (Thermo Scientific) was used. The reaction was carried out at 37 °C in 75 mM phosphate buffer (pH= 7.4), and the final volume reaction mixture was 200 µL. The tested compounds and Trolox standard were dissolved in DMSO to 10 mM and further diluted in 75 mM phosphate buffer (pH= 7.4). The final concentrations were 0.1-1 µM for the tested compounds and 1-8 µM for Trolox standard. The blank was composed of 120 µL of FL, 60 µL of AAPH and 20 µL of phosphate buffer (pH=7.4) and was added in each assay.
The net AUC corresponding to a sample was calculated as follows: Net AUC = AUCantioxidant −AUCblank . [formula]
Regression equations were calculated by plotting the net AUC against the antioxidant concentration. The ORAC value was obtained by dividing the slope of the latter curve between the slope of the Trolox curve obtained in the same assay. Final ORAC values were expressed as µmol of Trolox equivalent/µmol of TFAH.

[4] = target: T2, Human red-blood cell acetylcholinesterase (hAChE; EC 3.1.1.7) (Homo sapiens, UniProt P22303); assay: biochemical; settings: pH 7.4, 37 °C, mean ± SEM, read-out: AChE (IC50 µM)
T2 construct: Human red-blood cell acetylcholinesterase; purchased Sigma-Aldrich (Prague, Czech Republic); host or cells: human red blood cells
T2 sequence (P22303 32-617 isoform P22303-2 limits assumed): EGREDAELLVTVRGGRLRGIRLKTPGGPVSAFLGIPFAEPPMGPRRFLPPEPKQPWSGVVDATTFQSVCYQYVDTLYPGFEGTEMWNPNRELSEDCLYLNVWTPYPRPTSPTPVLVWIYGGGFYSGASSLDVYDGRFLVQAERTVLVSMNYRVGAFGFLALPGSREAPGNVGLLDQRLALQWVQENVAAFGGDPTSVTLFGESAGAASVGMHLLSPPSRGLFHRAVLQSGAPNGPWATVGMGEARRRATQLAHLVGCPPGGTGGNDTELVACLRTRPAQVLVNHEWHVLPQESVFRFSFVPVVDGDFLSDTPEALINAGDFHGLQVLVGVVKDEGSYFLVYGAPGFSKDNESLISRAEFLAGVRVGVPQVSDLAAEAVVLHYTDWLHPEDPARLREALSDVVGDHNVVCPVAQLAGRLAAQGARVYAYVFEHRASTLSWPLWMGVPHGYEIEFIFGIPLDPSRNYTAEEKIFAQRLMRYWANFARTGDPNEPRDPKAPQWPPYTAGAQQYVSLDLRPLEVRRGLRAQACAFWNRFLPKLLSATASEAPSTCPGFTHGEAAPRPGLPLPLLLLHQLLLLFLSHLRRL
Experimental: The AChE and BuChE inhibitory activity of the tested compounds was determined using a modified Ellman's method^31, 32.Human red-blood cell acetylcholinesterase (hAChE; EC 3.1.1.7), and human recombinant butyrylcholinesterase (hBuChE; EC 3.1.1.8), 5,5'-dithiobis(2-nitrobenzoic acid) (Ellman's reagent, DTNB), phosphate buffer (PB, pH 7.4), acetylthiocholine (ATC), and butyrylthiocholine (BTC), were purchased from Sigma-Aldrich (Prague, Czech Republic). Nunc polystyrene 96-well microplates with flat-bottom shape (ThermoFisher Scientific, USA) were used for the measurement and all the assay were carried out in 0.1 M KH2PO4/K2HPO4 buffer, pH 7.4. Enzyme solution was prepared at activity 2.0 units/mL in 2 mL aliquots. The assay mixture (100 µL) consisted of 40 µL of 0.1 M phosphate buffer (pH 7.4), 20 µL of 0.01 M DTNB, 10 µL of enzyme, and 20 µL of 0.01 M substrate (ATC iodide solution). Tested compounds were dissolved first in methanol (BIGI 23 in DMSO) and then further diluted by assay buffer to the final concentration. […] Enzyme with the inhibitor was preincubated for 5 min in the assay mixture and then the reaction was started by addition of 20 µL of substrate (ATC for AChE, BTC for BuChE). […] Each concentration was assayed in triplicate. The obtained data were used to compute the percentage inhibition (I; Equation 1): I = 1−(ΔAi)/(ΔA0) [%] [formula] ΔAi indicates the absorbance change provided by cholinesterase exposed to AChE inhibitors and ΔA0 indicates absorbance change caused by intact cholinesterase (phosphate buffer was used instead of AChE inhibitor solution).

[5] = SH-SY5Y cells, K+ 70 mM, mean ± SEM, read-out: IC50 (µM) Calcium channels blockade

CCOC(=O)C1=C(C)N(CC2CCN(Cc3ccccc3)CC2)C(=O)NC1c1coc2ccccc2c1=O (stereo not shown) [BIGI-3a, ethyl 1-((1-benzylpiperidin-4-yl)methyl)-6-methyl-2-oxo-4-(4-oxo-4H-chromen-3-yl)-1,2,3,4-tetrahydropyrimidine-5-carboxylate]
IC50 [1, 5]: 14 ± 3 µM | IC50 [2]: 14.8 ± 0.7 µM | ORAC [3]: 3.29 ± 0.07 TE

CCOC(=O)C1=C(C)N(CC2CCN(Cc3ccccc3)CC2)C(=O)NC1c1coc2ccc(Br)cc2c1=O (stereo not shown) [BIGI-3b, ethyl 1-((1-benzylpiperidin-4-yl)methyl)-4-(6-bromo-4-oxo-4H-chromen-3-yl)-6-methyl-2-oxo-1,2,3,4-tetrahydropyrimidine-5-carboxylate]
IC50 [1, 5]: 6 ± 3 µM | ORAC [3]: 2.06 ± 0.17 TE

CCOC(=O)C1=C(C)N(CC2CCN(Cc3ccccc3)CC2)C(=O)NC1c1coc2cc(CC)ccc2c1=O (stereo not shown) [BIGI-3c, ethyl 1-((1-benzylpiperidin-4-yl)methyl)-4-(7-ethyl-4-oxo-4H-chromen-3-yl)-6-methyl-2-oxo-1,2,3,4-tetrahydropyrimidine-5-carboxylate]
IC50 [1, 5]: 3 ± 0.9 µM | IC50 [4]: 6.08 ± 0.38 µM | IC50 [2]: 36.1 ± 3.1 µM | ORAC [3]: 3.51 ± 0.09 TE

CCOC(=O)C1=C(C)N(CCC2CCN(Cc3ccccc3)CC2)C(=O)NC1c1coc2ccccc2c1=O (stereo not shown) [BIGI-3d, ethyl 1-(2-(1-benzylpiperidin-4-yl)ethyl)-6-methyl-2-oxo-4-(4-oxo-4H-chromen-3-yl)-1,2,3,4-tetrahydropyrimidine-5-carboxylate]
IC50 [1, 5]: 9 ± 2 µM | IC50 [4]: 0.23 ± 0.01 µM | IC50 [2]: 6.58 ± 0.34 µM | ORAC [3]: 2.53 ± 0.17 TE

CCOC(=O)C1=C(C)N(CCC2CCN(Cc3ccccc3)CC2)C(=O)NC1c1coc2cc(CC)ccc2c1=O (stereo not shown) [BIGI-3f, ethyl 1-(2-(1-benzylpiperidin-4-yl)ethyl)-4-(7-ethyl-4-oxo-4H-chromen-3-yl)-6-methyl-2-oxo-1,2,3,4-tetrahydropyrimidine-5-carboxylate]
IC50 [1, 5]: 2.2 ± 0.6 µM | IC50 [4]: 0.3 ± 0.01 µM | IC50 [2]: 5.96 ± 0.22 µM | ORAC [3]: 2.20 ± 0.05 TE

CCOC(=O)C1=C(C)N(CCC2CCN(Cc3ccccc3)CC2)C(=O)NC1c1coc2cc(C)c(Cl)cc2c1=O (stereo not shown) [BIGI-3g, ethyl 1-(2-(1-benzylpiperidin-4-yl)ethyl)-4-(6-chloro-7-methyl-4-oxo-4H-chromen-3-yl)-6-methyl-2-oxo-1,2,3,4-tetrahydropyrimidine-5-carboxylate]
IC50 [1, 5]: 1.7 ± 0.6 µM | IC50 [4]: 0.29 ± 0.01 µM | IC50 [2]: 15.7 ± 0.9 µM | ORAC [3]: 2.56 ± 0.13 TE

CCOC(=O)C1=C(C)N(CCCC2CCN(Cc3ccccc3)CC2)C(=O)NC1c1coc2ccccc2c1=O (stereo not shown) [BIGI-3i, ethyl 1-(3-(1-benzylpiperidin-4-yl)propyl)-6-methyl-2-oxo-4-(4-oxo-4H-chromen-3-yl)-1,2,3,4-tetrahydropyrimidine-5-carboxylate]
IC50 [1, 5]: 8 ± 1 µM | IC50 [4]: 0.15 µM | IC50 [2]: 4.29 ± 0.09 µM | ORAC [3]: 3.09 ± 0.07 TE

CCOC(=O)C1=C(C)N(CCCC2CCN(Cc3ccccc3)CC2)C(=O)NC1c1coc2ccc(Br)cc2c1=O (stereo not shown) [BIGI-3j, ethyl 1-(3-(1-benzylpiperidin-4-yl)propyl)-4-(6-bromo-4-oxo-4H-chromen-3-yl)-6-methyl-2-oxo-1,2,3,4-tetrahydropyrimidine-5-carboxylate]
IC50 [1, 5]: 3.8 ± 0.1 µM | IC50 [4]: 0.18 ± 0.01 µM | IC50 [2]: 6.51 ± 0.45 µM | ORAC [3]: 3.24 ± 0.02 TE

CCOC(=O)C1=C(C)N(CCCC2CCN(Cc3ccccc3)CC2)C(=O)NC1c1coc2cc(C)c(Cl)cc2c1=O (stereo not shown) [BIGI-3l, ethyl 1-(3-(1-benzylpiperidin-4-yl)propyl)-4-(6-chloro-7-methyl-4-oxo-4H-chromen-3-yl)-6-methyl-2-oxo-1,2,3,4-tetrahydropyrimidine-5-carboxylate]
IC50 [1, 5]: 3.2 ± 0.2 µM | IC50 [4]: 0.17 ± 0.01 µM | IC50 [2]: 6.26 ± 0.31 µM | ORAC [3]: 1.68 ± 0.18 TE

CCOC(=O)C1=C(C)N(CCCC2CCN(Cc3ccccc3)CC2)C(=O)NC1c1coc2c(Cl)cc(Cl)cc2c1=O (stereo not shown) [BIGI-3m, ethyl 1-(3-(1-benzylpiperidin-4-yl)propyl)-4-(6,8-dichloro-4-oxo-4H-chromen-3-yl)-6-methyl-2-oxo-1,2,3,4-tetrahydropyrimidine-5-carboxylate]
IC50 [1, 5]: 5 ± 2 µM | IC50 [4]: 0.34 ± 0.02 µM | IC50 [2]: 14.4 ± 1.2 µM | ORAC [3]: 3.29± 0.10 TE

CCOC(=O)C1=C(C)N(CCCC2CCN(Cc3ccccc3)CC2)C(=O)NC1c1coc2ccc(C(C)C)cc2c1=O (stereo not shown) [BIGI-3n, ethyl 1-(3-(1-benzylpiperidin-4-yl)propyl)-4-(6-isopropyl-4-oxo-4H-chromen-3-yl)-6-methyl-2-oxo-1,2,3,4-tetrahydropyrimidine-5-carboxylate]
IC50 [1, 5]: 1.7 ± 0.4 µM | IC50 [4]: 0.58 ± 0.02 µM | IC50 [2]: 4.35 ± 0.23 µM | ORAC [3]: 2.45± 0.04 TE

COc1cc(/C=C/C(=O)O)ccc1O [Ferulic acid, reference compound]
ORAC [3]: 3.7 TE and 3.7 ± 0.2 TE

COC(=O)C1=C(C)NC(C)=C(C(=O)OC)C1c1ccccc1[N+](=O)[O-] [Nifedipine, reference compound]
IC50 ([1]; read-out: IC50 (µM) Calcium channels blockade, SH-SY5Y cells, K+ 70 mM, mean ± SEM): 6.2 ± 0.2 µM
